Measurements reported in the supplement of paper PMC10331698.
± gives the standard deviation of the averaged measurements.

How the values were obtained:
Assay in all cases: level (log10 ratio to DMSO vehicle control); higher = higher biomarker level / cell amount than vehicle control
[1] = compound: CCN(CCO)S(=O)(=O)C(F)(F)C(F)(F)C(F)(F)C(F)(F)C(F)(F)C(F)(F)C(F)(F)C(F)(F)F [N-Ethyl-N-(2-hydroxyethyl)perfluorooctanesulfonamide]; details: in DMSO
Protocol: (§1)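 BioMAP Diversity Plus panel of 12 human primary cell co-culture systems (3C, 4H, LPS, SAg, BT, BF4T, BE3C, CASM3C, HDF3CGF, KF3CT, MyoF, Mphg). Compounds were added 1 h before stimulation and left for 24 h (MyoF 48 h; BT 72 h for soluble read-outs or 6 d for IgG). Biomarkers were read by ELISA, cytotoxicity by SRB, PBMC viability and proliferation by Alamar Blue. Each well value was divided by the mean of 8 DMSO control wells on the same plate and log10 transformed; duplicate blinded samples were tested at 4 concentrations.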

[2] = compound: OCCCC(F)(F)C(F)(F)C(F)(F)C(F)(F)C(F)(F)C(F)(F)C(F)(F)F [7:3 Fluorotelomer alcohol]; details: 6700 nM; in DMSO
Protocol: as §1

Perfluorodecanoic acid = compound: O=C(O)C(F)(F)C(F)(F)C(F)(F)C(F)(F)C(F)(F)C(F)(F)C(F)(F)C(F)(F)C(F)(F)F [Perfluorodecanoic acid]; details: in DMSO
Protocol: as §1

[3] = compound: FC(F)(F)C(F)(C(F)(F)F)C(F)(F)C(F)(F)CC1CO1 [3-(Perfluoro-3-methylbutyl)-1,2-propenoxide]; details: in DMSO
Protocol: as §1

[4] = compound: OCC(F)(F)OC(F)(F)C(F)(F)OC(F)(F)CO [1H,1H,8H,8H-Perfluoro-3,6-dioxaoctane-1,8-diol]; details: in DMSO
Protocol: as §1

Perfluoropropanoic acid = compound: O=C(O)C(F)(F)C(F)(F)F [Perfluoropropanoic acid]; details: in DMSO
Protocol: as §1

[5] = compound: O=C(O)C(F)(F)OC(F)(F)C(F)(F)OC(F)(F)F [Perfluoro-3,6-dioxaheptanoic acid]; details: in DMSO
Protocol: as §1

Row | Test System | level (log10) ([1]; 6700 nM) | level (log10) ([1]; 20000 nM) | level (log10) [2] | level (log10) (Perfluorodecanoic acid; 6700 nM) | level (log10) (Perfluorodecanoic acid; 20000 nM) | level (log10) ([3]; 6700 nM) | level (log10) ([3]; 20000 nM) | level (log10) ([4]; 6700 nM) | level (log10) ([4]; 20000 nM) | level (log10) ([4]; 60000 nM) | level (log10) (Perfluoropropanoic acid; 6700 nM) | level (log10) (Perfluoropropanoic acid; 20000 nM) | level (log10) (Perfluoropropanoic acid; 60000 nM) | level (log10) ([5]; 6700 nM) | level (log10) ([5]; 20000 nM) | level (log10) ([5]; 60000 nM)
1 | 3C:CD87/uPAR | -0.047 ± 0.027 | -0.124 ± 0.046 | -0.003 ± 0.031 | 0.011 ± 0.02 | -0.01 ± 0.02 | -0.0085 ± 0.00071 | -0.003 ± 0.0028 | -0.0025 ± 0.015 | 0.019 ± 0.018 | 0.0015 ± 0.0078 | -0.008 ± 0.011 | -0.005 ± 0.011 | 0.0125 ± 0.013 | -0.0205 ± 0.00071 | -0.0015 ± 0.019 | -0.015 ± 0.028
2 | BF4T:tPA | 0.0595 ± 0.0064 | 0.067 ± 0.0028 | 0.0105 ± 0.015 | -0.0185 ± 0.005 | -0.18 ± 0.097 | 0.0135 ± 0.00071 | 0.0135 ± 0.0021 | 0.0015 ± 0.021 | 0.003 ± 0.013 | 0.0045 ± 0.0078 | -0.006 ± 0.024 | 0.025 ± 0.047 | 0.037 ± 0.04 | -0.0365 ± 0.05 | -0.0115 ± 0.063 | -0.041 ± 0.068
3 | BF4T:IL-1alpha | 0.008 ± 0.016 | -0.0175 ± 0.015 | -0.0045 ± 0.012 | -0.0335 ± 0.0035 | -0.247 ± 0.28 | -0.016 ± 0.024 | 0.0185 ± 0.013 | -0.004 ± 0.0042 | -0.01 ± 0.0042 | 0.012 ± 0.0028 | -0.0325 ± 0.005 | 0.002 | 0.013 ± 0.03 | -0.0225 ± 0.035 | -0.021 ± 0.024 | -0.0105 ± 0.018
4 | BE3C:CXCL10/IP-10 | -0.051 ± 0.0028 | -0.141 ± 0.028 | 0.011 ± 0.024 | -0.188 ± 0.088 | -1.16 | -0.0115 ± 0.023 | -0.0065 ± 0.011 | 0.004 ± 0.02 | 0.01 ± 0.0071 | 0.0105 ± 0.016 | -0.0125 ± 0.019 | 0.0035 ± 0.022 | 0.014 ± 0.025 | -0.03 ± 0.016 | -0.0115 ± 0.018 | -0.0095 ± 0.0078
5 | 4H:VEGFR2 | 0.0365 ± 0.0092 | 0.002 ± 0.0042 | 0.014 ± 0.017 | -0.007 ± 0.017 | -0.01 ± 0.02 | -0.001 ± 0.014 | 0.0245 ± 0.026 | 0.011 ± 0.045 | 0.043 ± 0.044 | 0.0595 ± 0.049 | -0.0375 ± 0.026 | -0.011 ± 0.04 | 0.049 ± 0.042 | -0.035 ± 0.0099 | -0.009 ± 0.048 | -0.013 ± 0.0071
6 | BE3C:CD87/uPAR | 0.012 ± 0.016 | -0.024 ± 0.028 | 0.0185 ± 0.03 | 0.05 ± 0.016 | -0.554 ± 0.011 | 0.01 ± 0.011 | -0.008 ± 0.0057 | -0.001 ± 0.0099 | 0.0265 ± 0.016 | -0.0125 ± 0.005 | -0.018 ± 0.0085 | -0.026 ± 0.0085 | 0.01 ± 0.0014 | 0.0055 ± 0.021 | 0.0075 ± 0.0021 | -0.0045 ± 0.015
7 | LPS:CD40 | 0.0735 ± 0.022 | 0.122 ± 0.0042 | 0.0345 ± 0.005 | -0.015 ± 0.16 | -0.0235 ± 0.12 | -0.0195 ± 0.015 | -0.007 ± 0.034 | 0.006 ± 0.027 | 0.017 ± 0.0028 | 0.0005 ± 0.03 | 0.0105 ± 0.043 | -0.0235 ± 0.0035 | 0.011 ± 0.023 | -0.0055 ± 0.012 | -0.0295 ± 0.039 | -0.024 ± 0.038
8 | BE3C:CXCL9/MIG | -0.006 ± 0.0028 | -0.0285 ± 0.0035 | -0.0015 ± 0.0021 | -0.003 ± 0.0042 | -0.715 ± 0.9 | -0.005 ± 0.0042 | -0.0035 ± 0.005 | 0.0015 ± 0.0064 | -0.0025 ± 0.0035 | 0.0035 ± 0.005 | -0.0005 ± 0.016 | 0.0035 ± 0.0078 | 0.0165 ± 0.023 | -0.016 ± 0.0014 | -0.003 ± 0.021 | 0.0025 ± 0.0035
9 | SAg:PBMC Cytotoxicity | -0.039 ± 0.052 | -0.0865 ± 0.042 | -0.0315 ± 0.018 | 0.032 ± 0.0028 | 0.0625 ± 0.061 | 0.008 ± 0.0071 | 0.016 ± 0.023 | 0.0055 ± 0.005 | 0.028 ± 0.089 | -0.033 ± 0.0042 | -0.001 ± 0.013 | -0.0055 ± 0.0092 | 0.009 ± 0.044 | -0.0035 ± 0.029 | 0.002 ± 0.0042 | 0.013 ± 0.0028
10 | 3C:CXCL9/MIG | -0.013 ± 0.0085 | -0.006 ± 0.0085 | -0.0135 ± 0.0035 | 0.002 | 0.0005 ± 0.0064 | -0.011 ± 0.0042 | -0.0025 ± 0.005 | -0.0025 ± 0.005 | -0.004 ± 0.0071 | 0.0015 ± 0.011 | -0.0005 ± 0.012 | 0.0025 ± 0.0064 | 0.0075 ± 0.019 | -0.012 ± 0.0042 | -0.0005 ± 0.019 | 0.0065 ± 0.005
11 | SAg:CXCL8/IL-8 | 0.0095 ± 0.025 | -0.167 ± 0.03 | -0.0085 ± 0.025 | -0.0325 ± 0.03 | -0.064 ± 0.038 | 0.0035 ± 0.0021 | 0.013 ± 0.041 | 0.0115 ± 0.022 | -0.005 | 0.014 ± 0.044 | -0.022 ± 0.0057 | 0.0065 ± 0.019 | 0.0415 ± 0.0078 | 0.0055 ± 0.0035 | 0.034 ± 0.0071 | 0.0735 ± 0.04
12 | LPS:CD69 | -0.134 ± 0.0028 | -0.226 ± 0.0042 | -0.007 ± 0.0014 | -0.03 ± 0.011 | -0.048 ± 0.0099 | -0.023 ± 0.027 | -0.004 ± 0.0057 | 0.0335 ± 0.083 | 0.033 ± 0.042 | 0.0025 ± 0.029 | -0.001 ± 0.023 | 0.0035 ± 0.012 | 0.005 ± 0.027 | -0.0125 ± 0.0064 | -0.044 ± 0.035 | -0.0165 ± 0.019
13 | BF4T:CXCL8/IL-8 | -0.015 ± 0.014 | -0.004 ± 0.0014 | 0.0165 ± 0.029 | 0.0395 ± 0.012 | -0.293 ± 0.076 | 0.0045 ± 0.015 | 0.014 ± 0.03 | 0.0225 ± 0.029 | -0.0005 ± 0.029 | 0 ± 0.023 | 0.043 ± 0.037 | 0.033 ± 0.035 | 0.046 ± 0.052 | 0.044 ± 0.034 | 0.0475 ± 0.015 | 0.073 ± 0.045
14 | LPS:CD62E/E-Selectin | 0.071 ± 0.02 | 0.073 ± 0.0042 | -0.0125 ± 0.016 | -0.0115 ± 0.00071 | -0.0205 ± 0.015 | 0.0165 ± 0.0035 | 0.0245 ± 0.025 | -0.0065 ± 0.0078 | -0.0155 ± 0.015 | 0.003 ± 0.0057 | -0.007 ± 0.0014 | -0.0195 ± 0.023 | -0.0025 ± 0.0078 | 0 ± 0.021 | -0.018 ± 0.05 | -0.006 ± 0.017
15 | BF4T:MMP-9 | -0.012 ± 0.014 | -0.032 ± 0.0014 | -0.0235 ± 0.018 | -0.025 ± 0.0057 | -0.282 ± 0.023 | 0.0085 ± 0.005 | -0.0125 ± 0.026 | -0.026 ± 0.047 | -0.0145 ± 0.025 | 0.01 ± 0.037 | -0.0065 ± 0.036 | -0.0065 ± 0.037 | 0.0035 ± 0.032 | -0.028 ± 0.059 | -0.028 ± 0.031 | -0.0155 ± 0.022
16 | BF4T:Keratin 8/18 | -0.002 ± 0.0014 | -0.0005 ± 0.0021 | 0.0045 ± 0.0035 | 0.011 ± 0.0028 | -0.335 ± 0.042 | 0.01 ± 0.023 | -0.002 ± 0.035 | 0.004 ± 0.0085 | -0.0075 ± 0.018 | 0.0205 ± 0.00071 | -0.032 ± 0.0028 | -0.004 ± 0.0014 | 0.027 ± 0.016 | -0.025 ± 0.023 | -0.001 ± 0.014 | -0.0095 ± 0.018
